# Where a name gives a salt, the structure may show the parent alone.
# How the values were obtained:
# yeast mixture 2 [1] = experiment: Repeated-inoculation microbiological stress test of body lotion, yeast mixture 2; assay type: cell-based, Candida albicans, Candida parapsilosis; set-up: key to Yeast growth after inoculation: 0: No growth; Minimal growth, 1 to 10 colonies visible over the entire streak; 2: Light growth, maximum 100 colonies; Moderate growth, maximum 300 to 400 colonies; Uniform growth, >400 colonies, single colonies still clearly recognizable; 5: Heavy growth, too many colonies to count, but no growth over the entire streak; 6: Full growth, barely any single colonies still apparent, growth over the entire streak; conditions: for Yeast growth after inoculation: Body lotion, 6 d
# Description: (§1) The tested cleaning composition was an all-purpose cleaner without preservatives and having a pH of 7.7, the skin lotion was a body lotion without preservatives and having a pH of 7.1, and the shampoo was a hair shampoo without preservatives and having a pH of 6.9.
# (§2) The cleaning composition was admixed with particular concentrations of guanidine carbonate and guanidine hydrochloride and homogenized. The body lotion and the hair shampoo were each admixed and homogenized with guanidine hydrochloride and with octane-1,2-diol alone or in combination.
# (§3) The batches of the products thus obtained were inoculated repeatedly at particular intervals with bacteria mixtures or yeast mixtures that are used as standard for microbiological stress tests of industrial products or cosmetic products (bacteria mixture 1 and 2, yeast mixture 1 and 2).
# (§4) The inoculum was added to the respective sample in each inoculation at 2% (v/w) as a fresh cell suspension in a physiological saline solution (0.9% NaCl). The cell count of the inoculum added was 10^8-10^9/ml for the bacteria mixtures, 10^7-10^8/ml for the yeast mixtures, consisting in equal parts of the individual bacteria strains or yeast strains.
# (§5) The cell suspension of the yeast mixtures was produced by growing the yeast strains on Sabouraud glucose-agar at 25° C. for 48 hours and washing down the cell lawn in each case with physiological saline solution (0.9% NaCl). Further steps for establishment of a cell count of the inoculum suspension of 10^7/ml to 10^8/ml were effected analogously to the production of the bacteria suspensions.
# (§6) In the examples, the samples were inoculated three times at weekly intervals with the respective cell suspensions (2% v/w) and the evolution of the bacteria or yeasts was followed by a semiquantitative evaluation method. After each inoculation, microbial infestation in the samples was evaluated in each case after incubation at 30° C. for 6 to 7 days. For this purpose, an aliquot was taken from each sample after homogenization using a sterile plastic inoculation loop (10 μl) and streaked evenly on agar plates (bacteria mixture 1 and 2 on tryptic soy agar, bacteria mixture 3 on DSMZ 31 alkaline nutrient agar, Sabouraud glucose-agar in the case of yeasts). The streaked agar plates were then incubated at 30° C. for 48 hours (bacteria mixture 1 and 2) or 5 to 7 days (bacteria mixture 3), or at 25° C. for 72 hours (yeast mixtures). After incubation, the bacteria colonies or yeast colonies that have grown on the agar plates were visually evaluated and quantified according to the following scheme:
# (§7) Inoculation 2% (w/v) with yeast mixture 2, cell count 10^7/ml
# yeast mixture 2 [2] = experiment: Repeated-inoculation microbiological stress test of shampoo, yeast mixture 2; assay type: cell-based, Candida albicans, Candida parapsilosis; set-up: key to Yeast growth after inoculation: 0: No growth; Minimal growth, 1 to 10 colonies visible over the entire streak; 2: Light growth, maximum 100 colonies; Moderate growth, maximum 300 to 400 colonies; Uniform growth, >400 colonies, single colonies still clearly recognizable; 5: Heavy growth, too many colonies to count, but no growth over the entire streak; 6: Full growth, barely any single colonies still apparent, growth over the entire streak; conditions: for Yeast growth after inoculation: Shampoo, 6 d
# Description: as §1, §2, §3, §4, §5, §6, §7
# bacteria mixture 3 = experiment: Repeated-inoculation microbiological stress test of body lotion, bacteria mixture 3; assay type: cell-based, Nesterenkonia spec.; set-up: key to Bacterial growth after inoculation: 0: No growth; Minimal growth, 1 to 10 colonies visible over the entire streak; 2: Light growth, maximum 100 colonies; Moderate growth, maximum 300 to 400 colonies; Uniform growth, >400 colonies, single colonies still clearly recognizable; 5: Heavy growth, too many colonies to count, but no growth over the entire streak; 6: Full growth, barely any single colonies still apparent, growth over the entire streak; conditions: for Bacterial growth after inoculation: Body lotion, 6 d
# Description: as §1, §2, §3, §4
# The cell suspension of the bacteria mixtures was produced by growing the individual bacteria at 30° C. for 24 h in liquid culture on a shaker. The medium used to grow the bacteria from bacteria mixtures 1 and 2 was Müller-Hinton liquid medium. The bacteria from bacteria mixture 3 were grown in Müller-Hinton liquid medium that had been adjusted to pH 9.5 to 9.7 with an alkaline buffer solution beforehand. After growing, the individual liquid cultures were centrifuged, and the cells were resuspended in physiological saline solution. In order to adjust the mixtures to a total cell count of 10^8 to 10^9/ml, the individual bacteria suspensions, if necessary, were diluted accordingly before being combined with saline solution. The cell count of the inoculum suspensions was determined in each case by chamber counting.
# as §6
# Inoculation 2% (w/v) with bacteria mixture 3, cell count 10^8/ml
# yeast mixture 1 = experiment: Repeated-inoculation microbiological stress test of all-purpose cleaner, yeast mixture 1; assay type: cell-based; set-up: key to Yeast growth after inoculation: 0: No growth; Minimal growth, 1 to 10 colonies visible over the entire streak; 2: Light growth, maximum 100 colonies; Moderate growth, maximum 300 to 400 colonies; Uniform growth, >400 colonies, single colonies still clearly recognizable; 5: Heavy growth, too many colonies to count, but no growth over the entire streak; 6: Full growth, barely any single colonies still apparent, growth over the entire streak; conditions: for Yeast growth after inoculation: All-purpose cleaner, 6 d
# Description: as §1, §2, §3, §4, §5, §6
# Inoculation 2% (w/v) with yeast mixture 1, cell count 10^8/ml
# [3] = +2500 ppm octanediol pH 7.0, 1. inoculation
# [4] = +2500 ppm octanediol pH 7.0, 2. inoculation
# [5] = +2500 ppm octanediol pH 7.0, 3. inoculation
# [6] = +5000 ppm octanediol pH 7.0, 1. inoculation
# [7] = +5000 ppm octanediol pH 7.0, 2. inoculation
# [8] = +5000 ppm octanediol pH 7.0, 3. inoculation
# [9] = +10000 ppm guanidine hydrochloride (6180 ppm guanidine) pH 6.8, 1. inoculation
# [10] = +10000 ppm guanidine hydrochloride (6180 ppm guanidine) pH 6.8, 2. inoculation
# [11] = +10000 ppm guanidine hydrochloride (6180 ppm guanidine) pH 6.8, 3. inoculation
structure (smiles),measurement,setting,value
"CCCCCCC(O)CO (stereo not shown) [octanediol, octane-1,2-diol]",Yeast growth after inoculation,yeast mixture 2 [1]; [3],5
same,Yeast growth after inoculation,yeast mixture 2 [1]; [4],6
same,Yeast growth after inoculation,yeast mixture 2 [1]; [5],6
same,Yeast growth after inoculation,yeast mixture 2 [1]; [6],"3 (Moderate growth, maximum 300 to 400 colonies)"
same,Yeast growth after inoculation,yeast mixture 2 [1]; [7],"3 (Moderate growth, maximum 300 to 400 colonies)"
same,Yeast growth after inoculation,yeast mixture 2 [1]; [8],"2 (Light growth, maximum 100 colonies)"
same,Yeast growth after inoculation,"yeast mixture 2 [2]; +2500 ppm octanediol pH 6.9, 1. inoculation","4 (Uniform growth, >400 colonies, single colonies still clearly recognizable)"
same,Yeast growth after inoculation,"yeast mixture 2 [2]; +2500 ppm octanediol pH 6.9, 2. inoculation",5
same,Yeast growth after inoculation,"yeast mixture 2 [2]; +2500 ppm octanediol pH 6.9, 3. inoculation",6
same,Yeast growth after inoculation,"yeast mixture 2 [2]; +5000 ppm octanediol pH 6.9, 1. inoculation","1 (Minimal growth, 1 to 10 colonies visible over the entire streak)"
same,Yeast growth after inoculation,"yeast mixture 2 [2]; +5000 ppm octanediol pH 6.9, 2. inoculation","2 (Light growth, maximum 100 colonies)"
same,Yeast growth after inoculation,"yeast mixture 2 [2]; +5000 ppm octanediol pH 6.9, 3. inoculation","2 (Light growth, maximum 100 colonies)"
same,Bacterial growth after inoculation,bacteria mixture 3; [3],"4 (Uniform growth, >400 colonies, single colonies still clearly recognizable)"
same,Bacterial growth after inoculation,bacteria mixture 3; [4],6
same,Bacterial growth after inoculation,bacteria mixture 3; [5],6
same,Bacterial growth after inoculation,bacteria mixture 3; [6],"1 (Minimal growth, 1 to 10 colonies visible over the entire streak)"
same,Bacterial growth after inoculation,bacteria mixture 3; [7],"3 (Moderate growth, maximum 300 to 400 colonies)"
same,Bacterial growth after inoculation,bacteria mixture 3; [8],"3 (Moderate growth, maximum 300 to 400 colonies)"
N=C(N)N [guanidine hydrochloride],Yeast growth after inoculation,"yeast mixture 1; +1000 ppm guanidine hydrochloride (618 ppm guanidine) pH 7.7, 1. inoculation",5
same,Yeast growth after inoculation,"yeast mixture 1; +1000 ppm guanidine hydrochloride (618 ppm guanidine) pH 7.7, 2. inoculation",6
same,Yeast growth after inoculation,"yeast mixture 1; +1000 ppm guanidine hydrochloride (618 ppm guanidine) pH 7.7, 3. inoculation",6
same,Yeast growth after inoculation,"yeast mixture 1; +2500 ppm guanidine hydrochloride (1545 ppm guanidine) pH 7.7, 1. inoculation","1 (Minimal growth, 1 to 10 colonies visible over the entire streak)"
same,Yeast growth after inoculation,"yeast mixture 1; +2500 ppm guanidine hydrochloride (1545 ppm guanidine) pH 7.7, 2. inoculation","1 (Minimal growth, 1 to 10 colonies visible over the entire streak)"
same,Yeast growth after inoculation,"yeast mixture 1; +2500 ppm guanidine hydrochloride (1545 ppm guanidine) pH 7.7, 3. inoculation","1 (Minimal growth, 1 to 10 colonies visible over the entire streak)"
same,Yeast growth after inoculation,"yeast mixture 1; +5000 ppm guanidine hydrochloride (3090 ppm guanidine) pH 7.6, 1. inoculation",0
same,Yeast growth after inoculation,"yeast mixture 1; +5000 ppm guanidine hydrochloride (3090 ppm guanidine) pH 7.6, 2. inoculation",0
same,Yeast growth after inoculation,"yeast mixture 1; +5000 ppm guanidine hydrochloride (3090 ppm guanidine) pH 7.6, 3. inoculation","1 (Minimal growth, 1 to 10 colonies visible over the entire streak)"
same,stability of the all-purpose cleaner to microbial infestation by yeasts,yeast mixture 1; addition of 1516 ppm of guanidine in the form of guanidine hydrochloride at pH 7.7,distinct improvement in stability
same,Yeast growth after inoculation,yeast mixture 2 [1]; [9],5
same,Yeast growth after inoculation,yeast mixture 2 [1]; [10],6
same,Yeast growth after inoculation,yeast mixture 2 [1]; [11],6
same,stability of the body lotion to microbial infestation by yeasts,yeast mixture 2 [1]; addition of 4553 ppm of guanidine in the form of guanidine hydrochloride at pH 6.9,distinct improvement in stability
same,Yeast growth after inoculation,"yeast mixture 2 [2]; +10000 ppm guanidine hydrochloride (6070 ppm guanidine) pH 6.8, 1. inoculation","4 (Uniform growth, >400 colonies, single colonies still clearly recognizable)"
same,Yeast growth after inoculation,"yeast mixture 2 [2]; +10000 ppm guanidine hydrochloride (6070 ppm guanidine) pH 6.8, 2. inoculation",6
same,Yeast growth after inoculation,"yeast mixture 2 [2]; +10000 ppm guanidine hydrochloride (6070 ppm guanidine) pH 6.8, 3. inoculation",6
same,stability of the shampoo to microbial infestation by yeasts,"yeast mixture 2 [2]; table 6, addition of 4553 ppm of guanidine in the form of guanidine hydrochloride at pH 6.9",distinct improvement in stability
same,Bacterial growth after inoculation,bacteria mixture 3; [9],6
same,Bacterial growth after inoculation,bacteria mixture 3; [10],6
same,Bacterial growth after inoculation,bacteria mixture 3; [11],6
same,stability of the body lotion to microbial infestation by bacteria,bacteria mixture 3; addition of 3035 ppm of guanidine in the form of guanidine hydrochloride at pH 7.0,distinct improvement in stability
